Earlier results as cited in patent US20070092568A1 (priority 2005, published 2007).
Where a name gives a salt, the structure may show the parent alone.

COc1ccc2c3c1O[C@H]1C[C@@H](O)C=C[C@@]31CCN(C)C2 [Galantamine hydrobromide, (4aS,6R,8aS)-4a,5,9,10,11,12-hexahydro-3-methoxy-11-methyl-6H-benzofuro[3a,3,2-ef][2]benzazepin-6-ol]
Solubility in water: sparingly soluble in water
